Test results: paper PMC7321108, “1-Hydroxyanthraquinones Containing Aryl Substituents as Potent and Selective Anticancer Agents” (Molecules, 2020)
Read-outs that look alike come from different tables or passages of the source.

How the values were obtained:
[1] = MTT cytotoxicity assay, normal hTERT-immortalized lung fibroblasts; format: cell-based; settings: human, hTERT-immortalized lung fibroblasts (normal cell line), 72 h incubation, mean ± SEM of three experiments, read-out: Cytotoxicity (GI50) against hTERT Lung Fibroblasts
Procedure: (§1) The cytotoxicity of the synthesized series of 4-substituted 5, 13–17, 22, 23, 2-substituted 25–30 and 2,4-disubstituted 1-hydroxy-9,10-anthraquinones 33–38, 40–45 was evaluated against a panel of seven different human cancer cell lines (glioblastoma cancer cells, human prostate cancer cells, T-cellular human leucosis, breast cancer cells) and also a normal cell line of hTERT-immortalized lung fibroblasts, using conventional MTT assay. Doxorubicin (DOX) is clinically used to treat cancer as drug in world and have a very wide antitumor spectrum. That we use them as positive control compounds. The cytotoxicity was determined by measuring the concentration inhibiting human tumor cell viability by 50% (GI50).
(§2) The human cancer cells of the glioblastoma (U-87MG, SNB-19, T98G), prostate cancer cell line (LNCAP, DU-145), the cells of T-cellular human leucosis (MT-4) and human breast cancer cells (MDA-MB-231) were used in this study. The cells were cultured in the RPMI-1640 medium that contained 10% embryonic calf serum, L-glutamine (2 mmol/L), gentamicin ([…]) and lincomycin (30 mkg/mL) in a CO2 incubator at 37 °C. The tested compounds were dissolved in DMSO and added to the cellular culture at the required concentrations. Three wells were used for each concentration. The cells which were incubated without the compounds were used as a control. Cells were placed on 96-well microliter plates and cultivated at 37 °C in 5% CO2/95% air for 72 h. The cell viability was assessed through an MTT [3-(4,5-dimethylthiazol-2-yl)-[…]-2H-tetrazolium bromide] conversion assay. A total of 1% MTT was added to each well. Four hours later, DMSO was added and mixed for 15 min. Optical density (D) of the samples was measured on a BioRad 680 multi-well spectrophotometer (USA) at the wavelength of 450 nm. The 50% cytotoxic dose GI50) of each compound (i.e., the compound concentration that causes the death of 50% of cells in a culture, or decreases the optical density twice as compared to the control wells) was calculated from the data obtained. Statistical processing of the results was performed using the Microsoft Excel-2007, […] 6.0 and GraphPad Prism 5.0 programs. The results are given as an average value ± a deviation from the average (mean ± standard error of the mean (SEM)). Reliability of differences (p) was estimated using the Student t test. The differences with p < 0.05 were considered as reliable. The experimental results are given as the data average values obtained from three independently conducted experiments.

[2] = test system: LNCAP prostate cancer cells; test: MTT cytotoxicity assay, LNCAP; format: cell-based, human; settings: 72 h incubation, mean ± SEM of three experiments, read-out: Cytotoxicity (GI50) against LNCAP
Procedure: as §1, §2

T98G glioblastoma cells = test: MTT cytotoxicity assay, T98G; format: cell-based; settings: Homo sapiens, 72 h incubation, mean ± SEM of three experiments, read-out: Cytotoxicity (GI50) against T98G
Procedure: as §1, §2

[3] = test system: MT-4 cells of T-cellular human leucosis; test: MTT cytotoxicity assay, MT-4; format: cell-based; settings: MT4, 72 h incubation, mean ± SEM of three experiments, read-out: Cytotoxicity (GI50) against MT-4
Procedure: as §1, §2

[4] = test system: U-87MG glioblastoma cells; test: MTT cytotoxicity assay, U-87MG; format: cell-based; settings: Homo sapiens, 72 h incubation, mean ± SEM of three experiments, read-out: Cytotoxicity (GI50) against U-87MG
Procedure: as §1, §2

[5] = test system: SNB-19 glioblastoma cells; test: MTT cytotoxicity assay, SNB-19; format: cell-based; settings: Homo sapiens, 72 h incubation, mean ± SEM of three experiments, read-out: Cytotoxicity (GI50) against SNB-19
Procedure: as §1, §2

pUC19 DNA plasmid = test: Gel retardation (electrophoretic mobility shift) assay; format: binding; settings: 0.5 µg pUC19 plasmid, 0.025 µM test compound, room temperature 1 h, agarose gel 60 V 4 h
Procedure: The interaction of compounds 13, 15, 16, 23, 25 27, 28, 35, 40 and 44 with DNA was experimentally confirmed by study of the electrophoretic mobility. For this the gel retardation assay was performed. Doxorubicin in different concentration was used as a positive control. In order to avoid destruction of the possible complex of DNA with compounds, the electrophoresis was performed at low voltage. The results are presented at Figure 3.
To study the interaction between test compounds and DNA the electrophoretic mobility shift assay was performed. 0.5 µg of pUC19 plasmid was incubated with 0.025 µM of test compounds at room temperature for 1 h. After that the electrophoresis was performed in agarose gel (1/2%) in TBE buffer (60 V, 4 h). For visualization the gel was staining with ethidium bromide and analyzed with Bio-Rad gel documentation system.

[6] = test system: MDA-MB-231 breast cancer cells; test: MTT cytotoxicity assay, MDA-MB-231; format: cell-based; settings: Homo sapiens, 72 h incubation, mean ± SEM of three experiments, read-out: Cytotoxicity (GI50) against MDA-MB-231
Procedure: as §1, §2

[7] = test system: DU-145 prostate cancer cells; test: MTT cytotoxicity assay, DU-145; format: cell-based, human; settings: Homo sapiens, DU-145, 72 h, 72 h incubation, mean ± SEM of three experiments, read-out: Cytotoxicity (GI50) against DU-145
Procedure: as §1, §2

SNB-19 cells [8] = test: DNA synthesis investigation (BrdU/PI flow cytometry), SNB-19; format: cell-based, human; settings: SNB-19, treated at GI50 concentration, 24 h, BrdU 30 min
Procedure: Cell cycle analysis was performed by Flow Cytometry using BrdU and PI staining [63]. For this experiment cells were seeded in 6-well plates (30,000 per plate) and incubate for adhesion for 24 h. […] For the next step the BrdU stock was added at a final concentration of 30 µM and cells were incubated for 30 min. Cells were washed with PBS, harvested using trypsine and resuspended at 0.3 mL of PBS. Permeabilization of cell membrane was performed as follows: 0.7 mL of ice-cold 100% EtOH was added into each sample, mixed gently and incubate at 4 °C for 1 h. Cells were pelleted and supernatant was removed completely. Then 0.5 mL of 2 N HCl/0.5% Triton X-100 was added and samples were incubated 30 min at room temperature. Cells were pelleted again, supernatant was removed. The pellet was resuspended in 0.5 mL of 0.1 M sodium tetraborate for 2 min and cells were pelleted again, washed with 150 µL of PBS/1% BSA and resuspended in 50 µM 0.5% Tween 20/1% BSA/PBS. […] After that the samples were resuspended in 0.5 mL of PBS containing 10 mg/mL RNAse A and 20 mg/mL PI. Samples were incubated at room temperature for 30 min and analyzed immediately or store at 4 °C. CytoFLEX flow cytometer (Beckman Coulter) was used for analysis. The results are presented as a percentage of cell population standing in DNA synthesis process.

SNB-19 cells [9] = test: Cell cycle analysis by flow cytometry (Hoechst 33342), SNB-19; format: cell-based, human; settings: SNB-19, treated at GI50 concentration, 24 h
Procedure: Due to the fact that the implementation of the antitumor potential of the currently existing antitumor agents is carried out by acting on various biological targets, at the next stage we performed the cell cycle analysis and DNA synthesis. Cell cycle analysis of 1-hydroxy-4-phenyl-9,10-anthraquinone 13, 1-hydroxy-4-(2,3-dimethoxyphenyl)-9,10- anthraquinone 16, 1-hydroxy-4-(furan-3-yl)-9,10-anthraquinone 23 and 1-hydroxy- 2-(2,3-dimethoxyphenyl)-9,10-anthraquinone 28 against SNB-19 cells for 24 h produced interesting results. After examining the data for compounds 13 and 16 (Table 3, Figure 4C,D), good number of cells are distributed in S phase, i.e., initiated DNA replication mechanism and also in G0/G1 phase, i.e., initial phase of cell cycle. G1 and G2 are the growth phases in cell cycle analysis, whereas S phase is a synthetic phase wherein DNA replication and DNA synthesis take place. The 2-aryl substituted compound 28 initiated the G0/G1 phase in analogy with doxorubicin and mitomycin. […] Further, compounds play a vital role in controlling the regulation of Sub-G1 and G2/M phases. Some difference in the mechanism of operation of 4-aryl substituted 13,16 and 2-aryl substituted 9,10-anthraquinones 28 has been observed during the progression of cell cycle like: S phase was highly disturbed by 13; G0/G1 phase was highly disturbed by 28. […] This observation can be explained by the influence on the cell repair systems that respond to the intercalation of compounds in DNA. […] Further, mitoxantrone promotes the arrest of S phase of cell cycle.
For cell cycle analysis cells were seeded in 6-well plates (30,000 per plate) and incubate for adhesion for 24 h. […] Cells were washed with PBS twice, harvested, pelleted and resuspended in 0.5 mL of PBS. For staining the Hoechst 33342 Ready Flow Reagent (Invitrogen) was used according to the instruction. CytoFLEX flow cytometer (Beckman Coulter) was used for analysis. The results are presented as a percentage of cell population standing in different stages of the cell cycle.

Compound	GI50 at 72 h [1]	GI50 ([2]; Homo sapiens, LNCaP, 72 h)	GI50 (T98G glioblastoma cells)	GI50 [3]	GI50 [4]	melting point	GI50 [5]	Retardation of plasmid DNA (electrophoretic mobility) (pUC19 DNA plasmid)	GI50 [6]	GI50 [7]	Population (% Cell Distribution) DNA Synthesis (SNB-19 cells [8])	Population (% Cell Distribution) G0/G1 (SNB-19 cells [9])	Population (% Cell Distribution) G2/M (SNB-19 cells [9])	Population (% Cell Distribution) S (SNB-19 cells [9])	Population (% Cell Distribution) Sub-G1 (SNB-19 cells [9])	Population (% Cell Distribution) Super-G2 (SNB-19 cells [9])	GI50 [2]
COc1ccc(-c2ccc(O)c3c2C(=O)c2ccccc2C3=O)cc1 [Compound 15, 1-Hydroxy-4-(4-methoxyphenyl)anthracene-9,10-dione]	42 ± 2.04 µM	28.5 ± 0.96 µM	11.6 ± 0.78 µM	32.1 ± 1.54 µM	45.4 ± 1.87 µM	209.2 to 209.4 °C	9.6 ± 1.04 µM	cause a retardation of plasmid DNA	6.8 ± 0.58 µM	6.5 ± 0.48 µM	–	–	–	–	–	–	–
O=C1c2ccccc2C(=O)c2c(-c3ccoc3)ccc(O)c21 [Compound 23, 1-(Furan-3-yl)-4-hydroxyanthracene-9,10-dione]	69.5 ± 1.52 µM	22.2 ± 2.12 µM	34.8 ± 1.06 µM	56.1 ± 1.96 µM	58.7 ± 2.48 µM	190 °C (dec.)	37 ± 1.41 µM	cause a retardation of plasmid DNA	18.2 ± 1.27 µM	15.4 ± 0.96 µM	22.71%	34.6%	17.3%	32.5%	3.1%	11.8%	–
COc1ccc(-c2ccc3c(c2O)C(=O)c2ccccc2C3=O)cc1 [Compound 27, 1-Hydroxy-2-(4-methoxyphenyl)anthracene-9,10-dione]	46.5 ± 1.21 µM	> 100 µM	21.6 ± 0.38 µM	38.6 ± 1.36 µM	35.8 ± 2.17 µM	209.5 °C (dec.)	8.5 ± 0.32 µM	cause a retardation of plasmid DNA	23.2 ± 2.34 µM	19.1 ± 0.78 µM	–	–	–	–	–	–	–
COc1cccc(-c2ccc3c(c2O)C(=O)c2ccccc2C3=O)c1OC [Compound 28, 2-(2,3-Dimethoxyphenyl)-1-hydroxyanthracene-9,10-dione]	51.3 ± 3.18 µM	23.1 ± 1.24 µM	32.6 ± 1.68 µM	18.2 ± 0.86 µM	> 100 µM	176.3 °C (dec.)	5.77 ± 0.23 µM	–	42.4 ± 3.32 µM	> 100 µM	16.83%	54.5%	13.7%	22.4%	3.6%	5.8%	–
COc1ccc(-c2cc(-c3ccc(OC)cc3)c3c(c2O)C(=O)c2ccccc2C3=O)cc1 [Compound 35, 1-Hydroxy-2,4-di-(4-methoxyphenyl)anthracene-9,10-dione]	17.7 ± 0.96 µM	26.7 ± 1.86 µM	9.8 ± 0.56 µM	20.2 ± 1.04 µM	25.7 ± 3.14 µM	226.4 °C (dec.)	10.1 ± 1.08 µM	cause a retardation of plasmid DNA	7.6 ± 0.64 µM	5.9 ± 0.52 µM	–	–	–	–	–	–	–
COc1ccc(-c2cc(Br)c(O)c3c2C(=O)c2ccccc2C3=O)cc1 [Compound 41, 2-Bromo-1-hydroxy-4-(4-methoxyphenyl)anthracene-9,10-dione]	17.2 ± 0.62 µM	41.1 ± 5.15 µM	29.7 ± 2.05 µM	44.1 ± 3.23 µM	44.5 ± 1.56 µM	241.3 °C (dec.)	14.1 ± 3.15 µM	–	15.8 ± 0.82 µM	> 100 µM	–	–	–	–	–	–	–
COc1cc(-c2cc(Br)c3c(c2O)C(=O)c2ccccc2C3=O)cc(OC)c1OC [Compound 42, 4-Bromo-1-hydroxy-2-(3,4,5-trimethoxyphenyl)anthracene-9,10-dione]	18.2 ± 2.19 µM	71.8 ± 9.76 µM	11.5 ± 1.34 µM	> 100 µM	> 100 µM	217.4 °C (dec.)	31.6 ± 2.16 µM	–	21.1 ± 3.28 µM	23.9 ± 4.28 µM	–	–	–	–	–	–	–
COc1cc(-c2cc(-c3ccccc3)c3c(c2O)C(=O)c2ccccc2C3=O)cc(OC)c1OC [Compound 43, 1-Hydroxy-4-phenyl-2-(3,4,5-trimethoxyphenyl)anthracene-9,10-dione]	34.1 ± 0.92 µM	> 100 µM	16.1 ± 0.78 µM	> 100 µM	> 100 µM	60.4 °C (dec.)	19.2 ± 2.52 µM	–	17.1 ± 1.55 µM	18.6 ± 2.45 µM	–	–	–	–	–	–	–
COc1cc(-c2cc(-c3ccc(Cl)cc3C(F)(F)F)c3c(c2O)C(=O)c2ccccc2C3=O)cc(OC)c1OC [Compound 45, 4-(4-Chloro-2-(trifluoromethyl)phenyl)-1-hydroxy-2-(3,4,5-trimethoxyphenyl)-anthracene-9,10-dione]	20.5 ± 2.68 µM	6.2 to 7.2 µM	28.3 ± 3.25 µM	31.5 ± 1.52 µM	18.2 ± 1.06 µM	226.8 °C (dec.)	11.2 ± 1.49 µM	–	14.2 ± 1.42 µM	22.6 ± 0.91 µM	–	–	–	–	–	–	7.2 ± 0.74 µM
